Laboratory results from patent EP0268267A2, “Guanidinomethylbenzoic acid derivatives, compositions containing the same, processes for preparing the same, and the use of the same in the manufacture of medicaments of therapeutic value” (NIPPON HYPOX LABORATORIES INCORPORATED, priority 1986, dated 1988).
Structures can show the parent of a compound that is named as a salt.

Key:
[1] = tested on: Stress Induced Ulcer; assay: Effect on stress induced ulcer (water-immersion restraint stress, method of Takagi et al.); assay type: in vivo, Male rats of Sprague Dawley (SD) strain; conditions: oral, 100 mg/kg in 1% CMC, given 15 min before 18 h water immersion at 24°C; for Ulcer inhibition rate (%): relative to group without test compound; for Ulcer index (mm): total major axis of ulcers per animal, control 94.4 ± 25.1
Experimental: Test Method 1 (Effect on Stress Induced Ulcer) The method of Takagi et al. (Jap. J. Pharmacol., 18, 9 ([…])) was followed. Male rats of Sprague Dawley (SD) strain each weighing from 180 to 200 g (8 weeks old and 6 to 8 rats in one group) were fasted for 24 hours, followed by oral administration of the above test compounds which had been suspended in 1% CMC aqueous solution. Fifteen minutes later, the animals were placed in a stress cage which was then immersed in a water bath at 24°C at the depth of the […] of the animals. After being immersed for 18 hours, the animals were sacrificed under etherization to remove the stomachs. Each of the stomachs was injected with 12 ml of 1% formaldehyde solution and then immersed in a 1% formaldehyde solution for 15 minutes. The stomach was incised along its greater curvature and examined for the gastric lesions under a stereomicroscope for the major axis (mm) of each ulcer that had developed on the gastric mucous membrane. The total major axis (mm) per animal was taken as the ulcer index of the animal. The ulcer inhibition rate was calculated from the following equation. The ED50 value was obtained from the dose-ulcer inhibition rate curve. Ulcer inhibition rate (%) = (1 - ? ) x 100 (wherein l is the ulcer index of a group without the test compounds administered, and m is the ulcer index of a group having such compounds administered).

[2] = tested on: Male mice of ddY strain; assay: Acute toxicity - minimum lethal dose (MLD); assay type: in vivo; conditions: oral administration in 1% CMC, fasted overnight, observation over 7 days
Source text: Test Method 2 (Acute Toxicity - Minimum Lethal Dose (MLD))
Male mice of ddY strain each weighing from 20 to 22 g (4 weeks old and 5 mice in one group) were fasted overnight, followed by oral administration of the test compounds which had been suspended in 1% CMC aqueous solution. Observation was made over 7 days to determine the minimum lethal dose (MLD).

Compound | Ulcer inhibition rate (%) [1] | Ulcer index (mm) [1] | minimum lethal dose (MLD) [2]
Cc1ccc(NC(=O)c2ccc(CNC(=N)N)cc2)cc1.Cl [A, N-(4ʹ-methylphenyl)-4-guanidinomethylbenzamide hydrochloride] | 90.3% | 9.2 ± 3.4 mm | 
COc1ccccc1NC(=O)c1ccc(CNC(=N)N)cc1.Cl [Compound D, N-(2ʹ-methoxyphenyl)-4-guanidinomethylbenzamide hydrochloride] | 74.8% | 23.8 ± 14.9 mm | 
N=C(N)NC[C@H]1CC[C@H](C(=O)Nc2ccccc2)CC1 [E, N-(phenyl)-trans-4-guanidinomethyl-cyclohexanecarboximide hydrochloride, reference compound] | 35.0% | 61.4 ± 14.0 mm | ≤ 1,000 mg/kg
CCOC(=O)c1ccccc1NC(=O)c1ccc(CNC(=N)N)cc1.Cl [C, N-(2ʹ-ethoxycarbonylphenyl)-4-guanidinomethylbenzamide hydrochloride] | 84.1% | 15.0 ± 14.7 mm | 
Cl.N=C(N)NCc1ccc(C(=O)Nc2ccc(Cl)cc2)cc1 [B, N-(4ʹ-chlorophenyl)-4-guanidinomethylbenzamide hydrochloride] | 80.5% | 18.4 ± 8.8 mm | 
